# Measured values: patent US8466112B2, “Compositions comprising Ornithine Ketoglutarate (OKG)” (Cutech S.r.l., priority 2007, dated 2013)
# Assays:
# [1] = tested on: hair follicles; assay: Relative growth of hair follicles compared to control, OKG versus Ornithine and alpha-Ketoglutarate; type: cell-based, human; settings: for Growth of hair follicles - elongation ± standard error, relative to control (100): after 6 days of cultivation
# Experimental: (§1) Human anagen hair follicles were isolated from scalp skin and transferred for cultivation in sterile 24 well plates using a modified Williams' Medium E. Cultivation took place for nine days, while the experimental treatment of the follicles started 24 hours from the beginning of the cultivation.
# (§2) Hair follicles taken from a single donor were selected for the experiments after 18 h of cultivation. Only those follicles showing a good vital stage and a growth of not less than 0.2 mm have been considered suitable to be maintained in culture. 4 groups were prepared comprising 9 follicles, plated at the density of 3 hair follicles/plate. […] The growth of the hair follicles was studied by microphotography and subsequently determined by image analysis. All the hair follicles were photographed every two days.
# In order to show the superiority of OKG compared to Ornithine on one hand and alpha-Ketoglutarate on the other, the influence of these compounds on the metabolism of hair follicles was studied under the conditions as explained in Examples 1 and 2. […] Examples 3 and 4 are according to the invention, examples C1-C4 are shown for comparison.
# [2] = tested on: hair follicles; assay: Histological analysis of hair follicles (anagen/catagen phase); type: cell-based, human; settings: after 9 days of cultivation
# Source text: The experiment according to Examples 1 and 2 was terminated after 9 days of cultivation. Subsequently, the hair follicles were subjected to a histological analysis by colouring with haematossilin and eosin in order to verify the morphological state of the dermopapilla.
# [3] = tested on: cells in the dermopapilla; assay: Number of proliferative (Ki-67) and apoptotic (Apoptag) cells in the dermopapilla; type: cell-based, human; settings: after three days of cultivation
# Experimental: After three days of cultivation samples were taken in order to determine the relative number of cells being in the proliferative or apoptotic state. The cells in apoptotic state were determined using an Apoptag Fluorescein In-situ Apoptosis Detection Kit (Chemicon International cod. S7110), while those in proliferative state were marked with the antibody Ki-67 (monoclonal mouse anti-human Ki-67, clone MIB1, Dako Cytomation cod. M7240). The total number of cells in the dermopapilla was analysed by marking their nuclei by means of DAPI (4′, 6-diamidino-2-phenylindol dihydrochloride). The percentage of cells in the proliferative or apoptotic stage compared to the total number of cells was determined again by image analysis.
# [4] = tested on: A 549 cells; settings: disclosed in WO 06/075924 A1; cited from earlier work
# [5] = tested on: Human anagen hair follicles; assay: Growth (elongation) of cultivated human hair follicles; type: cell-based
# Experimental: as §1, §2
compound,measurement,setting,value
O=C(O)CCC(=O)C(=O)O [alpha-Ketoglutarate],"Growth of hair follicles - elongation ± standard error, relative to control (100)",[1]; Conc. 0.001% b.w.,103.1 ± 3.1%
same,"Growth of hair follicles - elongation ± standard error, relative to control (100)",[1]; Conc. 0.01% b.w.,103.8 ± 3.8%
NCCC[C@H](N)C(=O)O [Ornithine],"Growth of hair follicles - elongation ± standard error, relative to control (100)",[1]; Conc. 0.001% b.w.,105.1 ± 5.1%
same,"Growth of hair follicles - elongation ± standard error, relative to control (100)",[1]; Conc. 0.01% b.w.,102.1 ± 5.0%
Ornithine Ketoglutarate [OKG],Hair follicles in Catagen phase,"[2]; OKG 0.1% b.w., control 44%",22%
same,Hair follicles in Anagen phase,"[2]; OKG 0.1% b.w., control 56%",78%
same,Effect on decline to the catagen phase (in words),[2],significantly delayed the decline to the catagen phase
same,Number of cells in Apoptotic stage ± standard error (of total cells),"[3]; OKG 0.1% b.w., control 0.48%",0.17% ± 0.073
same,Number of cells in Proliferative stage ± standard error (of total cells),"[3]; OKG 0.1% b.w., control 10.74%",10.51% ± 0.17
same,Effect on number of apoptotic cells (in words),[3],significantly reduces the number of apoptotic cells
same,Effect on proliferation of A 549 cells (in words),[4],stimulate the proliferation of A 549 cells
same,Growth of hair follicles - elongation ± standard error,"[5]; OKG 0.005% b.w. in cultivation medium, day 1 of cultivation",0 mm
same,Growth of hair follicles - elongation ± standard error,"[5]; OKG 0.005% b.w. in cultivation medium, day 3 of cultivation",0.84 ± 0.022 mm
same,Growth of hair follicles - elongation ± standard error,"[5]; OKG 0.005% b.w. in cultivation medium, day 5 of cultivation",1.50 ± 0.078 mm
same,Growth of hair follicles - elongation ± standard error,"[5]; OKG 0.005% b.w. in cultivation medium, day 7 of cultivation",1.98 ± 0.155 mm
same,Growth of hair follicles - elongation ± standard error,"[5]; OKG 0.005% b.w. in cultivation medium, day 9 of cultivation",2.35 ± 0.253 mm
same,Growth of hair follicles - elongation ± standard error,"[5]; OKG 0.01% b.w. in cultivation medium, day 1 of cultivation",0 mm
same,Growth of hair follicles - elongation ± standard error,"[5]; OKG 0.01% b.w. in cultivation medium, day 3 of cultivation",0.88 ± 0.024 mm
same,Growth of hair follicles - elongation ± standard error,"[5]; OKG 0.01% b.w. in cultivation medium, day 5 of cultivation",1.63 ± 0.067 mm
same,Growth of hair follicles - elongation ± standard error,"[5]; OKG 0.01% b.w. in cultivation medium, day 7 of cultivation",2.25 ± 0.086 mm
same,Growth of hair follicles - elongation ± standard error,"[5]; OKG 0.01% b.w. in cultivation medium, day 9 of cultivation",2.77 ± 0.163 mm
same,Effect on growth of the hair follicles (in words),[5]; addition of OKG 0.005 to 0.01% b.w. versus control,significant increase in growth of the hair follicles
same,Hair follicle stimulation compared to Ornithine and alpha-Ketoglutarate taken alone (in words),"[1]; 0.001 and 0.01% b.w., 6 days",superiority and synergistic effect
same,"Growth of hair follicles - elongation ± standard error, relative to control (100)",[1]; Conc. 0.001% b.w.,112.7 ± 3.1%
same,"Growth of hair follicles - elongation ± standard error, relative to control (100)",[1]; Conc. 0.01% b.w.,110.4 ± 4.0%
